Experimental data reported in US20240409585A1, “MACROCYCLIC IMMUNOMODULATORS” (priority 2021, published 2024).
Numbered stars: 1 amine (or outer) side, 2 acyl side, 3 side chain; on linkers, the order of the positions; unused ones are H or OH. Bridge positions count the residues as written; N and C are the ends. Square brackets hold non-standard residues; d marks the D form. Peptide text beside a SMILES is read from it. * marks the point of attachment. ξ: configuration not given here. X15 = COC(=O)c1ccc(NS(=O)(=O)NC(=O)C[C@H](N[*:1])C(=O)[*:2])cc1; Phe(3-CF3) = N[C@@H](Cc1cccc(C(F)(F)F)c1)C(=O)O; Ala(morpholin-4-yl) = N[C@@H](CN1CCOCC1)C(=O)O; Phe(4-COOH) = N[C@@H](Cc1ccc(C(=O)O)cc1)C(=O)O; Trp(7-Me) = Cc1cccc2c(C[C@H](N)C(=O)O)c[nH]c12; Phe(2,4-Cl2) = N[C@@H](Cc1ccc(Cl)cc1Cl)C(=O)O; Bip = N[C@@H](Cc1ccc(-c2ccccc2)cc1)C(=O)O; Phe(3-Me) = Cc1cccc(C[C@H](N)C(=O)O)c1; Val(3-OH) = CC(C)(O)[C@H](N)C(=O)O; d(hPhe) = N[C@H](CCc1ccccc1)C(=O)O; 3Pal = N[C@@H](Cc1cccnc1)C(=O)O; Cha = N[C@@H](CC1CCCCC1)C(=O)O; Cit = NC(=O)NCCC[C@H](N)C(=O)O; Ile(3ξ) = CCC(C)[C@H](N)C(=O)O; Thr(3ξ) = CC(O)[C@H](N)C(=O)O; ξCha = NC(CC1CCCCC1)C(=O)O; Pip = O=C(O)[C@@H]1CCCCN1; Carboxymethyl = O=C(O)C*; NMeA = CN[C@@H](C)C(=O)O; Orn = NCCC[C@H](N)C(=O)O; Dab = NCC[C@H](N)C(=O)O

Target: T1, PE-labeled human PD-L1-Ig binding to Jurkat cell line over-expressing human PD-1 (Jurkat-PD-1) (Homo sapiens, UniProt Q15116)
T1 construct: expressed in transfected cells; host or cells: Jurkat
T1 sequence (Q15116 25-288): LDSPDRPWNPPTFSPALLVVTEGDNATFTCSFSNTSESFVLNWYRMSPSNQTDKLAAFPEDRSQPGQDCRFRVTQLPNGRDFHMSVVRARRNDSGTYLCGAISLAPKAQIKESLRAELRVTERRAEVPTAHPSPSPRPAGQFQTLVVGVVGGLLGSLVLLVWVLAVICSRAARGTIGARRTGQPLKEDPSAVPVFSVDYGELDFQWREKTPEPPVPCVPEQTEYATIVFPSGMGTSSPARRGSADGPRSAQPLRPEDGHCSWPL
Experiment: Jurkat-PD-1 Cell Binding High-Content Screening Assay (CBA): Method 1
Details: Jurkat-PD-1 cells, PE-labeled PD-L1-Ig; μM; read-out: CBA Method 1 μM

Row | IC50 [µM] | SMILES
1 | 0.02 | CCC(C)[C@@H]1NC(=O)[C@H](Cc2ccc(-c3ccccc3)cc2)NC(=O)[C@H](C(C)C)NC(=O)[C@H](Cc2c[nH]c3ccccc23)NC(=O)[C@H](CC(=O)O)NC(=O)[C@H](Cc2ccc(OCC(=O)O)cc2)NC(=O)[C@H](C(C)O)NC(=O)CSC[C@@H](C(=O)N[C@H](CO)C(=O)NCC(=O)N[C@@H](CO)C(N)=O)NC(=O)[C@H](CO)NC(=O)[C@H](C(C)C)NC(=O)C(CC2CCCCC2)NC(=O)[C@H](CCN)NC(=O)[C@@H](CC(C)C)NC(=O)[C@H](C)N(C)C1=O (stereo partly drawn) [Example 5006] ({CH2CO}-[Thr(3ξ)]Y(Carboxymethyl)DWV[Bip][Ile(3ξ)][NMeA][dL][Dab][ξCha]VSC[dS]GS-NH2; thioether N-14)
2 | 0.355 | COC(=O)c1ccc(NS(=O)(=O)NC(=O)C[C@@H]2NC(=O)[C@H](Cc3ccc(C(=O)O)cc3)NC(=O)[C@H](CN3CCOCC3)NC(=O)CSC[C@@H](C(=O)N[C@@H](CCN)C(N)=O)NC(=O)[C@H](CCCN)NC(=O)[C@H](C(C)C)NC(=O)[C@H](CC3CCCCC3)NC(=O)[C@H](CCN)NC(=O)[C@@H](CC(C)C)NC(=O)[C@H](C)N(C)C(=O)[C@H](CCC(N)=O)NC(=O)[C@H](Cc3ccc(-c4ccccc4)cc3)NC(=O)[C@H](Cc3ccc(C(=O)O)cc3)NC(=O)[C@H](Cc3cccc(C(F)(F)F)c3)NC2=O)cc1 [Example 5083] ({CH2CO}-[Ala(morpholin-4-yl)][Phe(4-COOH)][X15][Phe(3-CF3)][Phe(4-COOH)][Bip]Q[NMeA][dL][Dab][Cha]V[Orn]C[Dab]-NH2; thioether N-14)

Same assay, conditions: Jurkat-hPD-1 cells, PE-labeled PD-L1-Ig 20 nM final; read-out: Jurkat HPDL1 PD1 IC50 (uM) (Method 1)

Row | SMILES | IC50 [µM]
3 | CC(C)C[C@@H]1NC(=O)[C@H](CCCNC(=N)N)NC(=O)[C@@H](CCc2ccccc2)NC(=O)[C@H](C)N(C)C(=O)[C@H](CCCNC(=N)N)NC(=O)[C@H](Cc2ccc(-c3ccccc3)cc2)NC(=O)[C@H](C(C)C)NC(=O)[C@H](Cc2c[nH]c3ccccc23)NC(=O)[C@H](CC(=O)O)NC(=O)[C@H](Cc2ccc(O)cc2)NC(=O)[C@H](Cc2ccccc2)NC(=O)CSC[C@@H](C(=O)NCC(N)=O)NC(=O)[C@H](CO)NC(=O)[C@H](C(C)C)NC1=O [Compound 1018] ({CH2CO}-FYDWV[Bip]R[NMeA][d(hPhe)]RLVSCG-NH2; thioether N-14) | 0.12
4 | CC(C)C[C@@H]1NC(=O)[C@H](CCCNC(=N)N)NC(=O)[C@@H](CC(C)C)NC(=O)[C@H](C)N(C)C(=O)[C@H](CCCNC(=N)N)NC(=O)[C@H](Cc2ccc(-c3ccccc3)cc2)NC(=O)[C@H](C(C)C)NC(=O)[C@H](Cc2c[nH]c3ccccc23)NC(=O)[C@H](CC(=O)O)NC(=O)[C@H](Cc2ccc(O)cc2)NC(=O)[C@H](CC(N)=O)NC(=O)CSC[C@@H](C(=O)N[C@@H](C)C(N)=O)NC(=O)[C@H](CO)NC(=O)[C@H](C(C)C)NC1=O [Compound 1033] ({CH2CO}-NYDWV[Bip]R[NMeA][dL]RLVSCA-NH2; thioether N-14) | 0.03
5 | CC(C)C[C@@H]1NC(=O)[C@H](Cc2c[nH]c3ccccc23)NC(=O)[C@H](CC(=O)O)NC(=O)[C@H](Cc2ccc(OCC(=O)O)cc2)NC(=O)[C@H](Cc2ccccc2)NC(=O)CSC[C@@H](C(=O)NCC(N)=O)NC(=O)[C@H](CO)NC(=O)[C@H](C(C)C)NC(=O)[C@H](CC(C)C)NC(=O)[C@H](CC(N)=O)NC(=O)[C@@H](CC(C)C)NC(=O)[C@H](C)N(C)C(=O)[C@H](C(C)C)NC(=O)[C@H](Cc2ccc(-c3ccccc3)cc2)NC1=O [Compound 1526] ({CH2CO}-FY(Carboxymethyl)DWL[Bip]V[NMeA][dL]NLVSCG-NH2; thioether N-14) | 0.01
6 | Cc1cccc2c(C[C@@H]3NC(=O)[C@H](CC(=O)O)NC(=O)[C@H](Cc4ccc(O)cc4)NC(=O)[C@H](Cc4ccccc4)NC(=O)CSC[C@@H](C(=O)N[C@@H](C)C(N)=O)NC(=O)[C@H]([C@@H](C)O)NC(=O)[C@H](C(C)C)NC(=O)[C@H](CC(C)C)NC(=O)[C@H](CCCNC(=N)N)NC(=O)[C@@H](CC(C)C)NC(=O)[C@H](C)N(C)C(=O)[C@H](CCCNC(=N)N)NC(=O)[C@H](Cc4ccc(-c5ccccc5)cc4)NC(=O)[C@H](C(C)C)NC3=O)c[nH]c12 [Compound 1097] ({CH2CO}-FYD[Trp(7-Me)]V[Bip]R[NMeA][dL]RLVTCA-NH2; thioether N-14) | 0.21
7 | CC(C)C[C@@H]1NC(=O)[C@H](CCN)NC(=O)[C@@H](CC(C)C)NC(=O)[C@@H]2CCCCN2C(=O)[C@H](CCCNC(N)=O)NC(=O)[C@H](Cc2ccc(-c3ccccc3)cc2)NC(=O)[C@H](C(C)C)NC(=O)[C@H](Cc2c[nH]c3ccccc23)NC(=O)[C@H](CC(=O)O)NC(=O)[C@H](Cc2ccc(O)cc2)NC(=O)[C@H](CC(N)=O)NC(=O)CSC[C@@H](C(=O)N[C@@H](C)C(N)=O)NC(=O)[C@H]([C@@H](C)O)NC(=O)[C@H](C(C)C)NC1=O [Compound 1382] ({CH2CO}-NYDWV[Bip][Cit][Pip][dL][Dab]LVTCA-NH2; thioether N-14) | 0.08

Results, then the compound that gave them:

Row | IC50 [µM] | SMILES
8 | 0.1 | CC(C)C[C@@H]1NC(=O)[C@H](C)NC(=O)[C@@H](C)NC(=O)[C@H](C)N(C)C(=O)[C@H](CCC(=O)O)NC(=O)[C@H](Cc2ccc(-c3ccccc3)cc2)NC(=O)[C@H](CC(C)C)NC(=O)[C@H](Cc2c[nH]c3ccccc23)NC(=O)[C@H](CC(=O)O)NC(=O)[C@H](Cc2ccc(C(=O)O)cc2)NC(=O)[C@H](Cc2cccnc2)NC(=O)CSC[C@@H](C(=O)N[C@@H](C)C(N)=O)NC(=O)[C@H](CO)NC(=O)[C@H](C(C)C)NC1=O [Compound 1786] ({CH2CO}-[3Pal][Phe(4-COOH)]DWL[Bip]E[NMeA][dA]ALVSCA-NH2; thioether N-14)
9 | 0.03 | CCC(C)[C@@H]1NC(=O)[C@H](Cc2ccc(-c3ccccc3)cc2)NC(=O)[C@H](C(C)C)NC(=O)[C@H](Cc2c[nH]c3ccccc23)NC(=O)[C@H](CC(=O)O)NC(=O)[C@H](Cc2ccc(OCC(=O)O)cc2)NC(=O)[C@H](C(C)O)NC(=O)CSC[C@@H](C(=O)N[C@@H](CO)C(=O)O)NC(=O)[C@H](C(C)O)NC(=O)[C@H](C(C)C)NC(=O)[C@H](CC2CCCCC2)NC(=O)[C@H](CCN)NC(=O)[C@@H](CC(C)C)NC(=O)[C@H](C)N(C)C1=O (stereo partly drawn) [Compound 2230] ({CH2CO}-[Thr(3ξ)]Y(Carboxymethyl)DWV[Bip][Ile(3ξ)][NMeA][dL][Dab][Cha]V[Thr(3ξ)]CS-OH; thioether N-14)
10 | 0.28 | CC(C)C[C@@H]1NC(=O)[C@H](Cc2c[nH]c3ccccc23)NC(=O)[C@H](CC(=O)O)NC(=O)[C@H](Cc2ccc(Cl)cc2Cl)NC(=O)[C@H](Cc2ccccc2)NC(=O)CSC[C@@H](C(=O)N[C@@H](C)C(N)=O)NC(=O)[C@H](CO)NC(=O)[C@H](C(C)C)NC(=O)[C@H](CC(C)C)NC(=O)[C@H](CC(N)=O)NC(=O)[C@@H](C)NC(=O)[C@H](C)N(C)C(=O)[C@H](C(C)C)NC(=O)[C@H](Cc2ccc(-c3ccccc3)cc2)NC1=O [Compound 1810] ({CH2CO}-F[Phe(2,4-Cl2)]DWL[Bip]V[NMeA][dA]NLVSCA-NH2; thioether N-14)
11 | 0.01 | Cc1cccc(C[C@@H]2NC(=O)[C@H](CC(=O)O)NC(=O)[C@H](Cc3ccc(O)cc3)NC(=O)[C@H](CC(N)=O)NC(=O)CSC[C@@H](C(=O)N[C@@H](CCN)C(N)=O)NC(=O)[C@H]([C@@H](C)O)NC(=O)[C@H](C(C)(C)O)NC(=O)[C@H](CC3CCCCC3)NC(=O)[C@H](CCN)NC(=O)[C@@H](CC(C)C)NC(=O)[C@H](C)N(C)C(=O)[C@H](CCCNC(N)=O)NC(=O)[C@H](Cc3ccc(-c4ccccc4)cc3)NC(=O)[C@H](C(C)C)NC2=O)c1 [Compound 1701] ({CH2CO}-NYD[Phe(3-Me)]V[Bip][Cit][NMeA][dL][Dab][Cha][Val(3-OH)]TC[Dab]-NH2; thioether N-14)
